Biological target: T1, CBL-B (Homo sapiens, UniProt Q13191)
T1 construct: GST
Assay: CBL-B TR-FRET IC50 screening (E1/E2 ubiquitination, Biotin-Ubiquitin, Anti GST-Tb donor / Streptavidin-d2 acceptor)
Type: biochemical
Conditions: CBL-B 10 nM final; 11-point titration from 100 uM; binned A-F; read-out: CBL-B TR-FRET activity IC50

T1 sequence (Q13191 whole entry): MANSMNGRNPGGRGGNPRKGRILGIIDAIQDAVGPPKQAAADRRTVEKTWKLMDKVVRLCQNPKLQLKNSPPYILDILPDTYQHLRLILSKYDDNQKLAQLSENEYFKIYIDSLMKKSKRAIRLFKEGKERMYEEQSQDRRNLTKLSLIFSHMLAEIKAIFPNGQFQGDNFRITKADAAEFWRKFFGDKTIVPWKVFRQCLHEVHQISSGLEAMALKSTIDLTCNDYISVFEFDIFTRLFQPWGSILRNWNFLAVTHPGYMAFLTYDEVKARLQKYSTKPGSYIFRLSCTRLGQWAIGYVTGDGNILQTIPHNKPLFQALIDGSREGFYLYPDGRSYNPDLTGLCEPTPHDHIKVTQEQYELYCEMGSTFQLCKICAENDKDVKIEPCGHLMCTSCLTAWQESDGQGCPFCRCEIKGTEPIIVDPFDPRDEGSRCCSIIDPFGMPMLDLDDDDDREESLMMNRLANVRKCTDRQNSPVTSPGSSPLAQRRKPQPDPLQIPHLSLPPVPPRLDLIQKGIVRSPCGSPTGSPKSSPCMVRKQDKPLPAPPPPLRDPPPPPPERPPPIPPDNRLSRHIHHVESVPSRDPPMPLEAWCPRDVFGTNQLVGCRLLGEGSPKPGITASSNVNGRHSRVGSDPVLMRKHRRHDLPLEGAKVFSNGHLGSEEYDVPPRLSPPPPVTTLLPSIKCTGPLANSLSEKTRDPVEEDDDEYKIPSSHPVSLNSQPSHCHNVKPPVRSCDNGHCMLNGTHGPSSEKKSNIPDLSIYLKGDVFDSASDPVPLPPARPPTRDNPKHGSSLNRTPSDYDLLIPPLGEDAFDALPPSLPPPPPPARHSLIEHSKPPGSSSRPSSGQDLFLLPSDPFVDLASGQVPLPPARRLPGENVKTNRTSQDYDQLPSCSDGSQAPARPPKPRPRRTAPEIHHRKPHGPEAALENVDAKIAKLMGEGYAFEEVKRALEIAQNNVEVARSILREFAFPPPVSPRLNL

Row | Compound | IC50
1 | O=c1n(-c2cccc([C@H](c3nncs3)C3CCC3)c2)cc2c(C(F)(F)F)cc(CN3CCC4(CC4)C3)cn12 [Compound 328] | 1000 to 3000 nM
2 | COC1CCN(Cc2cc(C(F)(F)F)c3cn(-c4cccc([C@H](c5nncs5)C5CCC5)c4)c(=O)n3c2)CC1 [Compound 330] | 301 to 1000 nM
3 | Cn1cnnc1[C@@H](c1cccc(-n2cc3c(C(F)(F)F)cc(-c4nncs4)cn3c2=O)c1)C1CCC1 [Compound 331] | 301 to 1000 nM
4 | C[C@H]1CCCN(Cc2cc(C(F)(F)F)c3cn(-c4cccc([C@H](CC5CC5)c5nncn5C)c4)c(=O)n3c2)C1 [Compound 332_P1] | > 10000 nM
5 | CC(=O)N1CCN(Cc2cc(C(F)(F)F)c3cn(-c4cccc([C@H](c5nncn5C)C5CCC5)c4)c(=O)n3c2)CC1 [Compound 339_P2] | 1000 to 3000 nM
6 | Cn1cnnc1[C@@H](c1cccc(-n2cc3c(C(F)(F)F)cc(CN4CCN(C=O)CC4)cn3c2=O)c1)C1CCC1 [Compound 340_P2] | 1000 to 3000 nM
7 | C[C@H]1CCCN(Cc2cc(C(F)(F)F)c3cn(-c4cccc(N(c5nncs5)C5CCC5)c4)c(=O)n3c2)C1 [Compound 344] | > 10000 nM
8 | Cn1cnnc1[C@@H](c1cccc(-n2cc3c(C(F)(F)F)cc(CNC4CC(F)(F)C4)cn3c2=O)c1)C1CCC1 [Compound 346] | > 10000 nM
9 | CC1CCCN(Cc2cc(C(F)(F)F)c3cn(-c4cccc([C@H](c5nncn5C)C5CCC5)c4)c(=O)n3c2)CC1 (stereo partly drawn) [Compound 350] | 100 to 300 nM
10 | COC(=O)N1CCN(Cc2cc(C(F)(F)F)c3cn(-c4cccc([C@@H](c5nncn5C)C5CCC5)c4)c(=O)n3c2)CC1 [Compound 351_P1] | 1000 to 3000 nM
11 | C[C@H]1CCCN(Cc2cc(C(F)(F)F)c3cn(-c4cccc([C@H](CC5CCC5)c5nncn5C)c4)c(=O)n3c2)C1 [Compound 352_P1] | > 10000 nM
12 | C[C@H]1CCCN(Cc2cc(C(F)(F)F)c3cn(-c4cccc([C@@H](CC5CCC5)c5nncn5C)c4)c(=O)n3c2)C1 [Compound 352_P2] | 100 to 300 nM
13 | C[C@H]1CCCCN1Cc1cc(C(F)(F)F)c2cn(-c3cccc([C@H](c4nncn4C)C4CCC4)c3)c(=O)n2c1 [Compound 362_P2] | 100 to 300 nM
14 | C[C@@H]1CCCCN1Cc1cc(C(F)(F)F)c2cn(-c3cccc([C@@H](c4nncn4C)C4CCC4)c3)c(=O)n2c1 [Compound 363_P1] | > 10000 nM
15 | CN1CCN(Cc2cc(C(F)(F)F)c3cn(-c4cccc([C@@H](c5nncn5C)C5CCC5)c4)c(=O)n3c2)CC1=O [Compound 364_P1] | 301 to 1000 nM
16 | CN1CC2CCC(C1)N2c1cc(C(F)(F)F)c2cn(-c3cccc([C@H](c4nncn4C)C4CCC4)c3)c(=O)n2c1 [Compound 373] | 100 to 300 nM
17 | CN1C2CCC1CN(c1cc(C(F)(F)F)c3cn(-c4cccc([C@H](c5nncn5C)C5CCC5)c4)c(=O)n3c1)C2 [Compound 374] | 301 to 1000 nM
18 | COCCN(c1cccc(-n2cc3c(C(F)(F)F)cc(CN4CCC[C@H](C)C4)cn3c2=O)c1)c1nncn1C [Compound 375] | 100 to 300 nM

The remaining lines, values ahead:

Row | IC50 | Compound
19 | < 100 nM | Cn1cnnc1[C@@H](c1cccc(-n2cc3c(C(F)(F)F)cc(CN4CCn5cnnc5C4)cn3c2=O)c1)C1CCC1 [Compound 316]
20 | < 100 nM | Cn1cnnc1[C@@H](c1cccc(-n2cc3c(C(F)(F)F)cc(CN4CCn5ncnc5C4)cn3c2=O)c1)C1CCC1 [Compound 317]
21 | < 100 nM | CO[C@H]1C[C@@](c2cccc(-n3cc4c(C(F)(F)F)cc(CN5CCC[C@H](C)C5)cn4c3=O)c2)(c2nncn2C)C1 [Compound 318]
22 | < 100 nM | Cn1cnnc1[C@@H](c1cccc(-n2cc3c(C(F)(F)F)cc(CN4CCO[C@H](C(F)(F)F)C4)cn3c2=O)c1)C1CCC1 [Compound 321]
23 | < 100 nM | Cn1cnnc1[C@@H](c1cccc(-n2cc3c(C(F)(F)F)cc(CNCC4COC4)cn3c2=O)c1)C1CCC1 [Compound 322]
24 | < 100 nM | CN(Cc1cc(C(F)(F)F)c2cn(-c3cccc([C@H](c4nncn4C)C4CCC4)c3)c(=O)n2c1)C1COC1 [Compound 323]
25 | < 100 nM | Cn1cnnc1[C@@H](c1cccc(-n2cc3c(C(F)(F)F)cc(CNC4COC4)cn3c2=O)c1)C1CCC1 [Compound 324]
26 | < 100 nM | CN(C)C(=O)C1CN(Cc2cc(C(F)(F)F)c3cn(-c4cccc([C@H](c5nncn5C)C5CCC5)c4)c(=O)n3c2)C1 [Compound 325]
27 | < 100 nM | Cc1[nH]nnc1[C@H](c1cccc(-n2cc3c(C(F)(F)F)cc(CN4CCC[C@H](C)C4)cn3c2=O)c1)C1CCC1 [Compound 326]
28 | < 100 nM | Cc1[nH]nnc1[C@@H](c1cccc(-n2cc3c(C(F)(F)F)cc(CN4CCC[C@H](C)C4)cn3c2=O)c1)C1CCC1 [Compound 327]
29 | < 100 nM | C[C@H]1CCCN(Cc2cc(C(F)(F)F)c3cn(-c4cccc([C@@H](CC5CC5)c5nncn5C)c4)c(=O)n3c2)C1 [Compound 332-p2]
30 | 100 to 300 nM | O=c1n(-c2cccc([C@H](c3nncs3)C3CCC3)c2)cc2c(C(F)(F)F)cc(CN3CCC(F)CC3)cn12 [Compound 333]
31 | < 100 nM | C[C@H]1CCCN(Cc2cc(C(F)(F)F)c3cn(-c4cccc(N(c5nncn5C)C5COC5)c4)c(=O)n3c2)C1 [Compound 334]
32 | < 100 nM | Cn1cnnc1[C@@H](c1cccc(-n2cc3c(C(F)(F)F)cc(CN4CC(C)(C)C4)cn3c2=O)c1)C1CCC1 [Compound 337]
33 | < 100 nM | Cn1cnnc1[C@@H](c1cccc(-n2cc3c(C(F)(F)F)cc(CN4CC(Oc5ccc(Cl)cc5)C4)cn3c2=O)c1)C1CCC1 [Compound 338]
34 | < 100 nM | CC(=O)N1CCN(Cc2cc(C(F)(F)F)c3cn(-c4cccc([C@@H](c5nncn5C)C5CCC5)c4)c(=O)n3c2)CC1 [Compound 339_P1]
35 | < 100 nM | Cn1cnnc1[C@H](c1cccc(-n2cc3c(C(F)(F)F)cc(CN4CCN(C=O)CC4)cn3c2=O)c1)C1CCC1 [Compound 340_P1]
36 | < 100 nM | C[C@H]1CCCN(Cc2cc(C(F)(F)F)c3cn(-c4cccc(C5(c6nncn6C)CCC5)c4)c(=O)n3c2)C1 [Compound 341]
37 | < 100 nM | Cn1cnnc1[C@@H](c1cccc(-n2cc3c(C(F)(F)F)cc(CN4CCc5ncsc5C4)cn3c2=O)c1)C1COC1 [Compound 345]
38 | < 100 nM | CN(Cc1cc(C(F)(F)F)c2cn(-c3cccc([C@H](c4nncn4C)C4CCC4)c3)c(=O)n2c1)CC1COC1 [Compound 347]
39 | 100 to 300 nM | CC(=O)N1CC2CCC(C1)N2Cc1cc(C(F)(F)F)c2cn(-c3cccc([C@H](c4nncn4C)C4CCC4)c3)c(=O)n2c1 [Compound 348]
40 | < 100 nM | CC(=O)N1C2CCC1CN(Cc1cc(C(F)(F)F)c3cn(-c4cccc([C@H](c5nncn5C)C5CCC5)c4)c(=O)n3c1)C2 [Compound 349]
41 | < 100 nM | COC(=O)N1CCN(Cc2cc(C(F)(F)F)c3cn(-c4cccc([C@H](c5nncn5C)C5CCC5)c4)c(=O)n3c2)CC1 [Compound 351_P2]
42 | < 100 nM | Cn1cnnc1[C@@H](c1cccc(-n2cc3c(C(F)(F)F)cc(CN4Cc5ncsc5C4)cn3c2=O)c1)C1CCC1 [Compound 357]
43 | < 100 nM | C[C@H]1CCCCN1Cc1cc(C(F)(F)F)c2cn(-c3cccc([C@@H](c4nncn4C)C4CCC4)c3)c(=O)n2c1 [Compound 362_P1]
44 | < 100 nM | C[C@@H]1CCCCN1Cc1cc(C(F)(F)F)c2cn(-c3cccc([C@H](c4nncn4C)C4CCC4)c3)c(=O)n2c1 [Compound 363_P2]
45 | < 100 nM | CN1CCN(Cc2cc(C(F)(F)F)c3cn(-c4cccc([C@H](c5nncn5C)C5CCC5)c4)c(=O)n3c2)CC1=O [Compound 364_P2]

— patent publication US20240228482A1, “COMPOUNDS, COMPOSITIONS AND METHODS OF TREATING CANCER” (HOTSPOT THERAPEUTICS, INC., priority 2021, published 2024)
